Here are results for one compound from patent publication US4160768A, “Anti-inflammatory 3-benzofuranyl imidazothiazole” (Diamond Shamrock Corporation, priority 1978, dated 1979).

A short description of test [1]: carrageenin-induced edema in the hind paw of the rat (modified Winter et al.). In kind it is in vivo. Particulars: Rattus norvegicus, po, 3 h, 3 h. The protocol: (§1) The procedure used for measuring the inhibition of carrageenin-induced edema is a slight modification of the method of Winter et al., Proc. Soc. Explt. Biol. Med. 111: 544 (1962). The device used for measurement of the paw volume is an adaptation of the water displacement procedure described by Adamkiewicz et al., Can. J. Biochem. Physiol. 33: 332 (1955). The above compounds were studied for their effectiveness in preventing the edema caused by the intraplantar injection of 0.05 ml of a sterile 1.0% solution of carrageenin. Compounds were administered orally, except when indicated as intraperitoneally (i.p.), one hour prior to the injection of the carrageenin into the left hind paw of rats. At peak swelling time (3 hours) the volume of edema was calculated by differential paw volumes.
Table I (in which Ph=phenyl) sets forth results obtained at the indicated dosages with compounds (or their salts) of the formula [drawing 8]
Following the procedure set forth in Example 4, hydrated compounds according to the following formula were evaluated for antiinflammatory effect with the results shown in Table II: [drawing 9]
Certain of the compounds of the invention were further tested to determine their ED50 values. […] Typical results of these tests appear in Table III.
Background: In the carrageenan paw model, swelling and tenderness develop within hours.

The nature of test [2]: adrenalectomized assay (carrageenin edema in adrenalectomized rats). In kind it is in vivo, Adrenalectomized Sprague Dawley Male Rats. Particulars: Rattus norvegicus, po, 3 h; 25 mg/kg; read-out: % Reduction (adrenalectomized rats). The protocol:
as §1
Next, certain of the compounds were subjected to a secondary screen designated the adrenalectomized assay. In this series of tests, the method used was identical to that described above, except that the animals used were adrenalectomized several days prior to assay. Since the results in the nonadrenalectomized animals were similar to those obtained in the adrenalectromized animals, it can be inferred that the antiinflammatory activity of the test compounds was not caused by the release of endogeneous adrenocortical steriods.

A short description of test [3]: adjuvant-induced arthritis test (Newbould). In kind it is in vivo, rat. From the text: Selected compounds were further subjected to advanced evaluations. Specifically, in view of the interesting activity of compounds 1 and 9, those compounds were further subjected to the adjuvant-induced arthritis test. This test requires one month (from day 0 to day 31). In the first seventeen days (0-17), the disease is in a developing stage, while for the remainder of the month (18-31) the disease is fully developed.
The method is essentially that of Newbould, Brit. J. Pharmacol. 21: 127, 1963. The test compounds were studied in the developing arthritis state and in the established arthritic state. Separate groups of twelve rats were administered the compounds orally using methylcellulose as the vehicle. In the study on the developing disease, administration of the test compounds begins on day 1 and on day 2 each animal is injected with 0.05 ml/kg of a 0.5% suspension of heat-killed Mycobacterium tuberculosis into the planter surface of the left hind paw. Foot volumes were measured by a water displacement device on the day of administration of the Mycobacterium and again on days 3, 10 and 17. The test compounds were administered once daily. Body weights were recorded daily and the animals were examined for the spread of the inflammation and the degree of secondary lesions. For study in the established disease, another group of rats are injected with the Mycobacterium and foot volumes are measured. After twenty days volumes are again measured and administration of the test compounds begins and continues for eleven days. Foot volume measurements are repeated on day 27 and day 31. The extent of the spread of the inflammation and the degree of lesions are recorded daily as are the body weights. The effect of the test compounds is measured by the percentage reduction in left hind paw volumes as compared to the hind paw volumes of the control groups.

Regarding `CC1=CSC2=NCCN12` [Compound 9], in test [1] (Table I, 50 mg/kg, oral, 1 h before carrageenin, read-out: Reduction % (carrageenin edema)), the inhibition in vivo at 50 mg/kg was determined as 46%. In addition, in test [1] (dose which reduced edema formation by about 25% or more vs mean control in 50% of the animals), the ED50 (as a rule, the dose at which the effect has come halfway, by size or by number of responders) is 20 mg/kg. The inhibition in vivo at 25 mg/kg in test [2] was 46%. Also, the “% reduction in swelling, hind paws” value is 21% in test [3] (24 mg/kg, day 3, developing (prophylactic)); 23% in test [3] (24 mg/kg, day 10, developing (prophylactic)); 15% in test [3] (24 mg/kg, day 17, developing (prophylactic)); 5% in test [3] (24 mg/kg, day 20, developed (therapeutic)); 0% in test [3] (24 mg/kg, day 27, developed (therapeutic)); 0% in test [3] (24 mg/kg, day 31, developed (therapeutic)). Moreover, the “% reduction in swelling, hind paws” value is 18% in test [3] (50 mg/kg, day 3, developing (prophylactic)); 17% in test [3] (50 mg/kg, day 10, developing (prophylactic)); 6% in test [3] (50 mg/kg, day 17, developing (prophylactic)); 3% in test [3] (50 mg/kg, day 20, developed (therapeutic)); 3% in test [3] (50 mg/kg, day 27, developed (therapeutic)); 7% in test [3] (50 mg/kg, day 31, developed (therapeutic)).
